This assay concerns the target Glycogen synthase kinase-3 beta (Homo sapiens, UniProt P49841). Kind of assay: Kinase-Glo Assay. As to conditions: 30 °C. On the procedure: The final DMSO concentration in the reaction mixture was <1%. After incubation at 30 °C for 30 min, the enzymatic reaction was quenched with 40 μL of Kinase-Glo reagent. Luminescence was recorded after 10 min using Infinite F200® PRO multimode reader (Tecan Group Ltd., Männedorf, Switzerland). The activity is proportional to the difference of the total and consumed ATP.
For orientation: Kinase-Glo reads ATP consumption through a luciferase reaction.

The values below come from BindingDB's records for doi:10.1111/cbdd.12724 (Hamdard University (Jamia Hamdard), 2016).

Glycogen synthase kinase-3 beta, sequence (P49841 whole entry): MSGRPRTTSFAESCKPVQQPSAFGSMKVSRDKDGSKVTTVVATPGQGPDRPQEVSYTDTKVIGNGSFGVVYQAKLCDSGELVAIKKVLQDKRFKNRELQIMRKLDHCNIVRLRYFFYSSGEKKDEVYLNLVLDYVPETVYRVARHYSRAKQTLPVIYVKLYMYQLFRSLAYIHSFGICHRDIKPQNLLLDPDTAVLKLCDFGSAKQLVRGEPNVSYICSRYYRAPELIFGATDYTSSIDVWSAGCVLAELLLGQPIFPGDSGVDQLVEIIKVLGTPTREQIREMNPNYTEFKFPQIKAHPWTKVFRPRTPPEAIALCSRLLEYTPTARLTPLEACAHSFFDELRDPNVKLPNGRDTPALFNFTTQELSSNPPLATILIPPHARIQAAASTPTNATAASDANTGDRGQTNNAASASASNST

In the case of `O=c1oc2cccnc2n1Cc1cn(-c2ccc(Cl)cc2Cl)nn1` [3-((1-(2,4-dichlorophenyl)-1H-1,2,3-triazol-4-yl)methyl)oxazolo[4,5-b]pyridin-2(3H)-one (4r)], half-maximal inhibition (IC50) was put at 10.8 µM.

As to `CC(C)(C)c1ccc(-n2cc(Cn3c(=O)oc4cccnc43)nn2)cc1` [3-((1-(4-tert-butylphenyl)-1H-1,2,3-triazol-4-yl)methyl)oxazolo[4,5-b]pyridin-2(3H)-one (4m)], it took 23.5 µM to reach half-maximal inhibition (IC50).

Regarding `O=c1oc2cccnc2n1Cc1cn(-c2ccccc2F)nn1` [3-((1-(2-fluorophenyl)-1H-1,2,3-triazol-4-yl)methyl)oxazolo[4,5-b]pyridin-2(3H)-one (4i)], the IC50 (in general, the concentration that gives 50% inhibition) was found to be 0.37 µM.

The molecule `O=c1oc2cccnc2n1Cc1cn(-c2ccccc2Br)nn1` [3-((1-(2-bromophenyl)-1H-1,2,3-triazol-4-yl)methyl)oxazolo[4,5-b]pyridin-2(3H)-one (4f)] displayed a half-inhibitory concentration (IC50) of 0.31 µM.

For `CCc1ccc(-n2cc(Cn3c(=O)oc4cccnc43)nn2)cc1` [3-((1-(4-ethylphenyl)-1H-1,2,3-triazol-4-yl)methyl)oxazolo[4,5-b]pyridin-2(3H)-one (4h)], the IC50 turned out to be 12.7 µM.

`O=c1oc2cccnc2n1Cc1cn(-c2ccc(Cl)cc2)nn1` [3-((1-(4-chlorophenyl)-1H-1,2,3-triazol-4-yl)methyl)oxazolo[4,5-b]pyridin-2(3H)-one (4c)] gave an IC50 of 5.73 µM.

In turn, `O=c1oc2cccnc2n1Cc1cn(-c2cccnc2)nn1` [3-((1-(pyridin-3-yl)-1H-1,2,3-triazol-4-yl)methyl)oxazolo[4,5-b]pyridin-2(3H)-one (4d)] returned an IC50 of 0.23 µM.

`CCOc1ccc(-n2cc(Cn3c(=O)oc4cccnc43)nn2)cc1` [3-((1-(4-ethoxyphenyl)-1H-1,2,3-triazol-4-yl)methyl)oxazolo[4,5-b]pyridin-2(3H)-one (4u)]: the midpoint of inhibition, the IC50, lay at 37.3 µM.

Regarding `O=c1oc2cccnc2n1Cc1cn(-c2cccnc2Cl)nn1` [3-((1-(2-chloropyridin-3-yl)-1H-1,2,3-triazol-4-yl)methyl)oxazolo[4,5-b]pyridin-2(3H)-one (4t)], the half-inhibitory concentration (IC50) was 11 µM.

`COc1ccccc1-n1cc(Cn2c(=O)oc3cccnc32)nn1` [3-((1-(2-methoxyphenyl)-1H-1,2,3-triazol-4-yl)methyl)oxazolo[4,5-b]pyridin-2(3H)-one  (4q)] yielded a 50% inhibitory concentration (IC50) of 0.74 µM.

In turn, `COc1ccc(-n2cc(Cn3c(=O)oc4cccnc43)nn2)cc1` [3-((1-(4-methoxyphenyl)-1H-1,2,3-triazol-4-yl)methyl)oxazolo[4,5-b]pyridin-2(3H)-one (4l)] came in with an IC50 of 8.45 µM.

Regarding `O=c1oc2cccnc2n1Cc1cn(-c2ccccc2Cl)nn1` [3-((1-(2-chlorophenyl)-1H-1,2,3-triazol-4-yl)methyl)oxazolo[4,5-b]pyridin-2(3H)-one (4g)], the IC50 was found to be 0.19 µM.

As for `O=c1oc2cccnc2n1Cc1cn(-c2ccccc2)nn1` [3-((1-phenyl-1H-1,2,3-triazol-4-yl)methyl)oxazolo[4,5-b]pyridin-2(3H)-one (4a)], the IC50 worked out at 10.1 µM.

As for `O=c1oc2cccnc2n1Cc1cn(-c2ccc([N+](=O)[O-])cc2)nn1` [3-((1-(4-nitrophenyl)-1H-1,2,3-triazol-4-yl)methyl)oxazolo[4,5-b]pyridin-2(3H)-one (4p)], the IC50 is 17.1 µM.

Take `O=c1oc2cccnc2n1Cc1cn(-c2cccc([N+](=O)[O-])c2)nn1` [3-((1-(3-nitrophenyl)-1H-1,2,3-triazol-4-yl)methyl)oxazolo[4,5-b]pyridin-2(3H)-one (4o)]: half-maximal inhibition (IC50) was put at 15.6 µM.

On to `O=c1oc2cccnc2n1Cc1cn(-c2ccc(Cl)c(Cl)c2)nn1` [3-((1-(3,4-dichlorophenyl)-1H-1,2,3-triazol-4-yl)methyl)oxazolo[4,5-b]pyridin-2(3H)-one (4s)], for which the IC50 was found to be 12.6 µM.

Molecule `O=c1oc2cccnc2n1Cc1cn(-c2cccc(Cl)c2)nn1` [3-((1-(3-chlorophenyl)-1H-1,2,3-triazol-4-yl)methyl)oxazolo[4,5-b]pyridin-2(3H)-one (4k)] had an IC50 of 28.4 µM.

For `Cc1ccccc1-n1cc(Cn2c(=O)oc3cccnc32)nn1` [3-((1-o-tolyl-1H-1,2,3-triazol-4-yl)methyl)oxazolo[4,5-b]pyridin-2(3H)-one (4n)], the midpoint of inhibition, the IC50, lay at 0.65 µM.

On to `O=c1oc2cccnc2n1Cc1cn(-c2ccc(F)cc2)nn1` [3-((1-(4-fluorophenyl)-1H-1,2,3-triazol-4-yl)methyl)oxazolo[4,5-b]pyridin-2(3H)-one (4e)], for which it took 2.49 µM to reach half-maximal inhibition (IC50).

The molecule `O=c1oc2cccnc2n1Cc1cn(-c2ccc(Br)cc2)nn1` [3-((1-(4-bromophenyl)-1H-1,2,3-triazol-4-yl)methyl)oxazolo[4,5-b]pyridin-2(3H)-one (4b)] gave a half-inhibitory concentration (IC50) of 8.64 µM.

As to `Cc1ccc(-n2cc(Cn3c(=O)oc4cccnc43)nn2)cc1C` [3-((1-(3,4-dimethylphenyl)-1H-1,2,3-triazol-4-yl)methyl)oxazolo[4,5-b]pyridin-3H)one (4j)], the midpoint of inhibition, the IC50, lay at 40.1 µM.
